Target: Complement factor D (Homo sapiens, UniProt P00746)
Experiment: Human Factor D Assay: Human factor D (purified from human serum, Complement Technology, Inc.) at 80 nM final concentration is incubated with test compound at various concentrations for 5 minutes at room temperature in 50 mM Tris, 1M NaCl, pH 7.5. A synthetic substrate Z-L-Lys-SBzl and DTNB (Ellman's reagent) are added to final concentrations of 100 μM each. The increase in color is recorded at OD405 nm in a microplate in kinetic mode over 30 minutes with 30 second time points in a […]. IC50 values are calculated by non-linear regression from the percentage of inhibition of complement factor D activity as a function of test compound concentration.

Complement factor D, sequence (P00746 whole entry): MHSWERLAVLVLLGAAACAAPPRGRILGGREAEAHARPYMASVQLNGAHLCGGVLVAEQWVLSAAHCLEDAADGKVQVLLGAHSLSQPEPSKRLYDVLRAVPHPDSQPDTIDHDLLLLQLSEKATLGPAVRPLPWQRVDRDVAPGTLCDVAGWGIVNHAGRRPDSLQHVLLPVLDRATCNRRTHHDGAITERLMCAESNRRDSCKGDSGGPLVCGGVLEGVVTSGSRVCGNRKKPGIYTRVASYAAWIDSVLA

Compound: CC(=O)c1cn(CC(=O)N2[C@@H]3C[C@@H]3C[C@H]2C(=O)NCc2cccc(Cl)c2F)c2ccc(NC(=O)N3CCCC3)cc12
- IC50: < 1000 nM

Reference: ChEMBL document CHEMBL5725324, “Amide compounds for treatment of complement mediated disorders” (2017)
